Measurements from US20040242886A1, “Monocyclic diazodioxide based Bcl-2 protein antagonists related applications” (priority 2003, published 2004).
Read-outs that look alike come from different tables or passages of the source.

Tests used:
[1] = tested on: A549 human lung cells expressing low Bcl-2 and high Bcl-XL levels; assay: Acute cytotoxicity (apoptotic activity), Alamar Blue viability, A549 cells; type: cell-based
Protocol: (§1) The biological activity of the compounds provided herein were assessed in cellular system by the method similar to the one described by Amundson et al. (Amundson, S. A. et al, Cancer Research 2000, 60, 6101-6110), which is incorporated herein by reference in its entirety. The compounds were tested for acute cytotoxicity (apoptotic activity) using two human cancer cell lines expressing high levels of either Bcl-2 or BCl-XL. HL60, human leukemic cells expressing high Bcl-2 and low BCl-XL levels, and A549 human lung cells expressing low Bcl-2 and high BCl-XL levels, were incubated with the compounds at concentrations between 0.5 and 1000 μg/mL for 4 hours at 37° C., 5% CO2. The number of viable cells were measured by mitochondrial transformation of Alamar Blue to a fluorescent dye. LC50 values for each test compound and controls are provided in the individual examples that follow.
(§2) The compounds provided herein were tested for acute cytoxicity (apoptotic activity) using two human cancer cell lines expressing high levels of either Bcl-2 or BCl-XL. HL-60 cells expressing high Bcl-2 and low Bcl-XL levels, and A549 human lung cells expressing low Bcl-2 and high Bcl-XL levels were incubated with the compounds provided herein at concentrations between 0.5 and 1000 μg/mL for 4 hours at 37° C., 5% CO2. The number of viable cells were measured by mitochondrial transformation of Alamar Blue to a fluorescent dye. As negative controls, the compounds were tested against the cell lines with low levels of Bcl-2 expression, viz., MDA-453 cells. LC50 values for each compound and controls were determined.

[2] = tested on: HL60, human leukemic cells expressing high Bcl-2 and low Bcl-XL levels; assay: Acute cytotoxicity (apoptotic activity), Alamar Blue viability, HL-60 cells; type: cell-based
Protocol: as §1, §2

cell = conditions: cited from earlier work
[3] = Homo sapiens, A549, 4 h; read-out: LC 50 (μM) A549
[4] = Homo sapiens, HL-60, 4 h; read-out: LC 50 (μM) HL-60
[5] = Homo sapiens, A549; 4 hours at 37° C.; read-out: LC50 value in A549 cell lines
[6] = Homo sapiens, HL-60; 4 hours at 37° C.; read-out: LC50 value in HL-60 cell lines

Structure (SMILES)	CC50 [1, 3] [µM]	CC50 [2, 4] [µM]	other results
[O-][n+]1nc(Cl)c2ccccc2c1Cl [compound 33]	50 to 200	50 to 200	–
O=S(=O)(c1ccc(Cl)n[n+]1[O-])C1CCCCC1 [compound 28]	> 200	< 50	–
[O-][n+]1nc(Oc2ccccc2)ccc1Oc1ccccc1 [Example 2, 3,6-diphenoxvpyridazine-1-oxide]	–	–	CC50 ([1]; 4 hours at 37° C.; read-out: LC50 value in A549 cell lines): > 500 µM; CC50 ([2]; 4 hours at 37° C.; read-out: LC50 value in HL-60 cell lines): > 500 µM
[O-][n+]1nc(Oc2ccccc2)ccc1Oc1ccccc1 [compound 4]	> 200	> 200	–
O=S(=O)(c1ccccc1)c1ccc(S(=O)(=O)c2ccccc2)[n+]([O-])n1 [Example 1, 3,6-bis(benzenesulfonyl)pyridazine-1-oxide]	–	–	CC50 [1, 5]: 268 µM; CC50 [2, 6]: 20.5 µM
O=S(=O)(c1ccc(O)cc1)c1ccc(S(=O)(=O)C2CCCCC2)[n+]([O-])n1 [compound 50]	> 200	50 to 200	–
CCS(=O)(=O)c1ccc(S(=O)(=O)CC)[n+]([O-])n1 [compound 12]	50 to 200	50 to 200	–
CCCC[C@H]1C(=O)O[C@H](C)[C@H](NC(=O)c2cccc(NC=O)c2O)C(=O)O[C@@H](C)[C@@H]1OC(=O)CC(C)C [compound 2]	–	–	CC50 (cell): 1200 nM
O=S(=O)(c1ccc(Cl)n[n+]1[O-])C1CCCCC1 [Example 4, 3-chloro-6-cyclohexanesulfonyl-pyridazine-1-oxide]	–	–	CC50 [1, 5]: 188 µM; CC50 [2, 6]: 20.2 µM
CC(=O)Oc1ccc(S(=O)(=O)c2ccc(S(=O)(=O)C3CCCCC3)[n+]([O-])n2)cc1 [compound 51]	> 200	50 to 200	–
COc1ccc(Cl)[n+]([O-])n1 [compound 3]	> 200	> 200	–
[O-][n+]1nc(Sc2ccccc2)ccc1Sc1ccccc1 [pyridazine, 3,6-bis(phenylthio)-, 1-oxide]	–	–	CC50 [2, 6]: 58.9 µM
COC(=O)c1ccccc1S(=O)(=O)c1ccc(S(=O)(=O)C2CCCCC2)[n+]([O-])n1 [compound 43]	> 200	< 50	–
CS(=O)(=O)Nc1ccc(S(=O)(=O)c2ccc(S(=O)(=O)C3CCCCC3)[n+]([O-])n2)cc1 [compound 58]	> 200	> 200	–
O=C(O)c1ccccc1Sc1ccc(SC2CCCCC2)[n+]([O-])n1 [compound 46]	> 200	> 200	–
[O-][n+]1nc(Sc2ccccn2)ccc1Sc1ccccn1 [compound 7, reference compound]	> 200	> 200	–
COc1cccc(S(=O)(=O)c2ccc(S(=O)(=O)c3cccc(OC)c3)[n+]([O-])n2)c1 [compound 21]	> 200	> 200	–
O=S(=O)(c1ccc(-c2ccccc2)n[n+]1[O-])C1CCCCC1 [compound 61]	> 200	> 200	–
Cc1ccc(S(=O)(=O)c2ccc(S(=O)(=O)C3CCCCC3)[n+]([O-])n2)cc1 [compound 49]	> 200	50 to 200	–
Cc1cc(Cl)[n+]([O-])nc1Cl [compound 17]	> 200	> 200	–

Structure (SMILES)	CC50 [1, 3] [µM]	CC50 [2, 4] [µM]	other results
CCCCS(=O)(=O)c1ccc(S(=O)(=O)CCCC)[n+]([O-])n1 [compound 24]	> 200	50 to 200	–
COC(=O)CCS(=O)(=O)c1ccc(S(=O)(=O)C2CCCCC2)[n+]([O-])n1 [compound 48]	> 200	< 50	–
COc1ccccc1S(=O)(=O)c1ccc(S(=O)(=O)C2CCCCC2)[n+]([O-])n1 [compound 39]	50 to 200	< 50	–
COC(=O)c1ccc(S(=O)(=O)c2ccc(S(=O)(=O)C3CCCCC3)[n+]([O-])n2)cc1 [compound 59]	> 200	< 50	–
COc1ccccc1S(=O)(=O)c1ccc(S(=O)(=O)c2ccccc2OC)[n+]([O-])n1 [compound 22]	> 200	< 50	–
O=S(=O)(c1cc[n+]([O-])cc1)c1ccc(S(=O)(=O)C2CCCCC2)[n+]([O-])n1 [compound 53]	> 200	50 to 200	–
O=S(=O)(c1ccccc1)c1ccc(Cl)n[n+]1[O-] [compound 40]	> 200	< 50	–
O=S(=O)(c1ccccc1)c1ccc(S(=O)(=O)C2CCCCC2)[n+]([O-])n1 [compound 34]	> 200	< 50	–
CC(C)(C)S(=O)(=O)c1ccc(S(=O)(=O)C(C)(C)C)[n+]([O-])n1 [compound 25]	> 200	50 to 200	–
O=S(=O)(c1ccccc1)c1ccc(S(=O)(=O)C2CCCCC2)[n+]([O-])n1 [Example 5, 3-benzenesulfonyl-6-cyclohexanesulfonyl-pyridazine-1-oxide]	–	–	CC50 [1, 5]: 279 µM; CC50 [2, 6]: 32.9 µM
CCOc1ccc(S(=O)(=O)C2CCCCC2)[n+]([O-])n1 [compound 31]	> 200	> 200	–
O=C(O)c1ccc(S(=O)(=O)c2ccc(S(=O)(=O)C3CCCCC3)[n+]([O-])n2)cc1 [compound 57]	> 200	> 200	–
O=S(=O)(c1ccc(S(=O)(=O)C2CCCCC2)[n+]([O-])n1)C1CCCCC1 [Example 3, 3,6-bis-cyclohexanesulfonyl-pyridazine-1-oxide]	–	–	CC50 [1, 5]: 192 µM; CC50 [2, 6]: 32.3 µM
[O-][n+]1ccccc1Cl [compound 29]	> 200	> 200	–
O=S(=O)(CCO)c1ccc(S(=O)(=O)C2CCCCC2)[n+]([O-])n1 [compound 47]	> 200	> 200	–
O=S(=O)(c1ccncc1)c1ccc(S(=O)(=O)C2CCCCC2)[n+]([O-])n1 [compound 60]	> 200	50 to 200	–
O=S(=O)(c1ccccc1)c1n[n+]([O-])c(O)c2ccccc12 [compound 44]	> 200	> 200	–
Cc1cc(Cl)n[n+]([O-])c1Cl [compound 23]	> 200	> 200	–
Cc1ccccc1S(=O)(=O)c1ccc(S(=O)(=O)c2ccccc2C)[n+]([O-])n1 [compound 19]	> 200	50 to 200	–
CCSc1ccc(S(=O)(=O)C2CCCCC2)n[n+]1[O-] [compound 38]	> 200	> 200	–

Structure (SMILES)	CC50 [1, 3] [µM]	CC50 [2, 4] [µM]	other results
O=S(=O)(c1ccc(Cl)c[n+]1[O-])C1CCCCC1 [compound 37]	> 200	> 200	–
[O-][n+]1nc(Cl)ccc1SC1CCCCC1 [compound 26]	> 200	> 200	–
O=[N+]([O-])c1ccc(Sc2ccc(Sc3ccc([N+](=O)[O-])cc3)nn2)cc1 [compound 9]	–	–	CC50 ([1]; Homo sapiens, A549, 4 h, read-out: LC 50 (μM) A549): > 200 µM; CC50 ([2]; Homo sapiens, HL-60, 4 h, read-out: LC 50 (μM) HL-60): > 200 µM
CCS(=O)(=O)c1n[n+]([O-])c(OC(=O)c2cccc(Cl)c2)c2ccccc12 [compound 45]	> 200	> 200	–
O=S(=O)(c1ccc(S(=O)(=O)C2CCCC2)[n+]([O-])n1)C1CCCC1 [compound 13]	> 200	< 50	–
Cc1cccc(S(=O)(=O)c2ccc(S(=O)(=O)c3cccc(C)c3)[n+]([O-])n2)c1 [compound 18]	> 200	> 200	–
Nc1ccc(S(=O)(=O)c2ccc(S(=O)(=O)C3CCCCC3)[n+]([O-])n2)cc1 [compound 55]	> 200	< 50	–
O=S(=O)(c1ccc(Sc2ccccc2)n[n+]1[O-])C1CCCCC1 [compound 30]	> 200	> 200	–
Clc1ccc(Cl)nn1 [compound 1]	> 200	> 200	–
O=S(=O)(c1ccc(S(=O)(=O)C2CCCCC2)[n+]([O-])n1)C1CCCCC1 [compound 20]	> 200	< 50	–
[O-][n+]1nc(Cl)ccc1Cl [compound 2]	> 200	< 50	–
O=S(=O)(Cc1ccccc1)c1ccc(S(=O)(=O)Cc2ccccc2)[n+]([O-])n1 [compound 14]	> 200	> 200	–
CCS(=O)(=O)c1ccc(S(=O)(=O)C2CCCCC2)[n+]([O-])n1 [compound 36]	50 to 200	< 50	–
O=S(=O)(c1ccccc1)c1ccc(S(=O)(=O)C2CCCCC2)n[n+]1[O-] [compound 41]	> 200	< 50	–
O=S(=O)(c1ccc(S(=O)(=O)C2CCCCC2)[n+]([O-])n1)c1ccccc1Cl [compound 42]	50 to 200	< 50	–
[O-][n+]1cc(Cl)ccc1Cl [compound 35]	> 200	> 200	–
CC(=O)NCCS(=O)(=O)c1ccc(S(=O)(=O)C2CCCCC2)[n+]([O-])n1 [compound 56]	> 200	> 200	–
[O-][n+]1nc(Sc2ccccc2)ccc1Sc1ccccc1 [compound 5]	–	> 200	–
COc1ccc(Sc2ccc(Sc3ccc(OC)cc3)[n+]([O-])n2)cc1 [compound 10]	> 200	> 200	–
